The source of these data is PMC5435687 (Scientific Reports, 2017).

A short description of series [1]: Stability of CPZ in aqueous solution. It is filed as physicochemical. To be noted: aqueous solution / cell culture medium.
The subject of series [2] is SH-SY5Y cells. Nature of the series: Transferrin (Trf) uptake under pharmacological endocytosis inhibitors (control for clathrin-mediated endocytosis). It counts as cell-based, human. Conditions: for effect of inhibitor on Trf uptake: 10 µM cytochalasin A, 25 µg/ml cytochalasin D, 10 µM IPA-3 or 25 nM wortmannin, Trf 5 µg/ml 5 min. On the procedure:
(§1) Flow cytometry was used to quantify cellular uptake. The samples were washed in serum free medium (1x for experiments including only Aβ and 3x for experiments with Trf) prior to incubation with Aβ peptides and/or other reagents in serum free medium supplemented with 30 mM HEPES and 2% B-27. For experiments including Trf B-27 was omitted, as outlined above. Prior to analysis, the cells were washed 1x (for experiments including only Aβ) or 3x (for experiments including Aβ and dextran 10 kDa or Trf) in serum free medium, detached by trypsin-EDTA for 10 min followed by addition of FBS-supplemented cell culture medium to inhibit further proteolytic degradation. All samples were kept on ice until they were analysed on a Guava EasyCyte 8HT (Millipore, Darmstadt, Germany) that automatically retrieves samples from a 96-well plate. In order to exclude effects due to difference in delay time we used mixed order of analysis, loading only a few samples at a time with the remaining samples kept on ice. The cell counting gate was determined using propidium iodide (0.5 µM, not washed away prior to analysis) and calcein-AM (10 nM, 15 min staining) to distinguish live and dead cells, and for each sample 5,000 cells from within the live gate were counted and analysed. HF488, AlexaFluor488, EGFP and calcein-AM were excited by a 488 nm laser and their fluorescence was detected through a 525/30 nm filter. Propidium iodide and mRFP were excited by the 488 nm laser but detected through a 692/46 nm filter. HF647 and AlexaFluor647 were excited with a 635 nm laser and detected through a 661/19 nm filter. Compensation was performed to adjust for bleed through in experiments including mRFP. Mean cellular uptake was estimated as the average fluorescence intensity of all cells gated within the live region and all individual experiments were performed with three technical replicates (n = 3) unless else is stated. The average fluorescence intensity was baseline corrected by subtracting the signal for unstained cells.
Endocytic mechanisms were also perturbed by treatment of cells with pharmacological inhibitors. Stock solutions of cytochalasin A, cytochalasin D, dynasore, wortmannin and IPA-3 were prepared in DMSO and diluted in serum-free cell culture media supplemented with 30 mM HEPES on the day of the experiment. The final DMSO concentration added to the cells was kept <0.1% and matched for the control. Prior to addition of Aβ peptide the cells were always washed in serum-free medium followed by pre-incubation for 30 min with either of the inhibitors diluted in serum-free medium with the addition of 30 mM HEPES. 1 µM Aβ was thereafter added and the cells were incubated for a total of 1 h, in presence of the respective inhibitors. The cells were centrifuged 1000 * g for 5 min at 4 °C, washed 3x with ice-cold serum-free medium, followed by detachment and immediate flow cytometry analysis, as detailed above. […] However, under exposure conditions where at least 75% if the inhibitor-treated cells were found in the live gate (see Supplementary Fig. S5) we observed reductions in Aβ uptake. Only the live cells were included in the analysis. Trf was used as a positive control for clathrin-mediated endocytosis. Due to the rapid uptake and recycling of internalized Trf we adopted an optimized protocol with sufficiently short Trf incubation times. First, to remove the quantities of membrane-bound Trf that originate from the serum component of the complete culture medium the cells were washed 3x in serum-free medium. The cells were then subjected to the inhibitors as described above and thereafter exposed to a 5 min pulse of 5 µg/ml Trf. To remove externally bound fluorescently labelled Trf the cells were thereafter washed (3x/2 min) in ice-cold acidic buffer (0.1 M Glycine-HCl buffer pH 2.5 with 150 mM NaCl)[35] whilst kept on ice. […]

Series [3] relates to SH-SY5Y cells. Nature of the series: Cell viability by flow cytometry FSC/SSC live/dead gating. It is filed as cell-based. Conditions: for fraction of inhibitor-treated cells in the live gate: 90 min exposure at the concentrations used (10 µM cytochalasin A, 25 µg/ml cytochalasin D, 10 µM IPA-3, 25 nM wortmannin, 5 µg/ml CPZ, 80 µM dynasore), FSC/SSC gating. How it is done:
Flow cytometry was used to quantify cellular uptake. […] For experiments including Trf B-27 was omitted, as outlined above. […] All samples were kept on ice until they were analysed on a Guava EasyCyte 8HT (Millipore, Darmstadt, Germany) that automatically retrieves samples from a 96-well plate. In order to exclude effects due to difference in delay time we used mixed order of analysis, loading only a few samples at a time with the remaining samples kept on ice. The cell counting gate was determined using propidium iodide (0.5 µM, not washed away prior to analysis) and calcein-AM (10 nM, 15 min staining) to distinguish live and dead cells, and for each sample 5,000 cells from within the live gate were counted and analysed. […] Compensation was performed to adjust for bleed through in experiments including mRFP. Mean cellular uptake was estimated as the average fluorescence intensity of all cells gated within the live region and all individual experiments were performed with three technical replicates (n = 3) unless else is stated. The average fluorescence intensity was baseline corrected by subtracting the signal for unstained cells.
(1 picture or pasted object on this page, not shown here)
A general note: Flow cytometry measures light scatter and fluorescence of single cells or particles in a stream.

For series [4], the system named is SH-SY5Y cells transfected with dyn2 K44A. As to the kind of experiment: Uptake in cells transfected with dominant negative dynamin2 K44A. It is filed as cell-based, human. To be noted: SH-SY5Y 24 h post transfection; HF647-labelled Aβ 1 µM 1 h or AF647-Trf 5 µg/ml 5 min; gated low/medium/high EGFP; N = 2, n = 3–5. On the procedure:
as §1, with “In order to exclude effects due to difference in delay time we used mixed order of analysis, loading only a few samples at a time with the remaining samples kept on ice.” left out, “HF647 and AlexaFluor647 were excited with a 635 nm laser and detected through a 661/19 nm filter. Compensation was performed to adjust for bleed through in experiments including mRFP. Mean cellular uptake was estimated as the average fluorescence intensity of all cells gated within the live region and all individual experiments were performed with three technical replicates (n = 3) unless else is stated. The average fluorescence intensity was baseline corrected by subtracting the signal for unstained cells.” left out

The subject of series [5] is SH-SY5Y cells transfected with AP180-C. As to the kind of experiment: Uptake in cells overexpressing AP180-C. It counts as cell-based, human. Conditions: SH-SY5Y 24 h post transfection; HF488-labelled Aβ 1 µM 1 h or AF647-Trf 5 µg/ml 5 min; low and high mRFP gates; N = 2, n = 2–4. On the procedure: as §1, with “cells. […]” for “cells.”

Entries after “also recorded” stand apart in the source; their conditions may differ. Structures can show the parent of a compound that is named as a salt.

In the case of `CN(C)CCCN1c2ccccc2Sc2ccc(Cl)cc21` [CPZ, chlorpromazine hydrochloride], the stability in solution entry in series [1] is on record as “rapidly degraded in aqueous solutions; also recorded: rapid degradation in solution”. The inhibition (commonly the drop in the measured response relative to a control, in per cent) at 5 µg/mL in series [2] (Homo sapiens, 5 µg/ml CPZ, Trf 5 µg/ml 5 min pulse at end of 1 h Aβ incubation, n = 3) was around 30%. Take `CCN(c1nc(N)c(C(=O)NC(=N)N)nc1Cl)C(C)C` [EIPA]: the “specificity as macropinocytosis inhibitor” value in series [2] (25–200 µM) is given as “unspecific in SH-SY5Y cells regardless of the concentration used”. Take `Oc1ccc2ccccc2c1SSc1c(O)ccc2ccccc12` [IPA-3, 1,1′-Disulfanediyldinaphthalen-2-ol]: the “fraction of inhibitor-treated cells in the live gate” value (from here on “fraction of inhibitor-treated cells”) in series [3] is listed as “at least 90%”. The “effect of inhibitor on Trf uptake” value in series [2] (n = 3) is given as “identical to that in the control”. With `C=C1[C@@H](C)[C@H]2[C@H](Cc3ccccc3)NC(=O)[C@]23OC(=O)/C=C/C(=O)CCC[C@@H](C)C/C=C/[C@H]3[C@@H]1O` [cytochalasin A], in series [3], the “fraction of inhibitor-treated cells” value is above 85%. The “effect of inhibitor on Trf uptake” value in series [2] (n = 3) is reported as “reduced the uptake of Trf”. The like results for `C=C1[C@@H](C)[C@H]2[C@H](Cc3ccccc3)NC(=O)[C@]23[C@H](OC(C)=O)/C=C/[C@@](C)(O)C(=O)[C@@H](C)C/C=C/[C@H]3[C@@H]1O` [cytochalasin D] were, in that order, above 85% and “reduced the uptake of Trf”. The molecule `O=C(N/N=C/c1ccc(O)c(O)c1)c1cc2ccccc2cc1O` [dynasore] had an inhibition at 80 µM in series [2] (Homo sapiens, 5 min, 80 µM dynasore, 5 µg/ml AF647-Trf 5 min pulse, range over 4 independent experiments) of 30 to 65%. On to `COC[C@H]1OC(=O)c2coc3c2[C@@]1(C)C1=C(C3=O)[C@@H]2CCC(=O)[C@@]2(C)C[C@H]1OC(C)=O` [wortmannin], for which the “fraction of inhibitor-treated cells” value in series [3] is reported as “at least 90%”. Also, the “effect of inhibitor on Trf uptake” value in series [2] (n = 3) was “identical to that in the control”. As to Transferrin [Trf], the “uptake in dyn2 K44A transfected cells relative to non-transfected cells” value in series [4] was “inhibited in proportion to the degree of dyn2 K44A expression”. In addition, the “uptake in AP180-C transfected cells compared to non-transfected cells” value in series [5] was “systematically decreased with the degree of AP180-C overexpression”. Take methyl-β-cyclodextrin: the “cytotoxicity during cholesterol depletion” value in series [3] is on record as “high levels of cytotoxicity”.
